From PubChem BioAssay (NCI)
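Tested at 5 concentrations; 48 h exposure; 96-well plates; endpoints linearly interpolated, else capped at highest concentration. The concentration for 50% growth inhibition is given as GI50. Definition used: TGI = concentration required for complete inhibition of growth.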

Legend:
Test in all cases: NCI anticancer screen, dose series, 48 h
[1] = system: NCI-H460 lung
[2] = system: OVCAR-3 ovarian
[3] = system: A549 NSCLC
[4] = system: HL-60(TB) leukemia
[5] = system: SF-295 CNS
[6] = system: SN12C renal
[7] = system: NCI-H522 lung
[8] = system: OVCAR-8 ovarian
[9] = system: HCT-15 colon
[10] = system: M14 melanoma
[11] = system: NCI-H226 lung
[12] = system: OVCAR-5 ovarian
[13] = system: SF-539 CNS
[14] = system: HS 578T breast
[15] = system: HOP-92 NSCLC
[16] = system: NCI/ADR-RES ovarian
[17] = system: SF-268 CNS
[18] = system: UO-31 renal
[19] = system: A498 renal
[20] = system: HOP-62 NSCLC
[21] = system: MDA-MB-435
[22] = system: K-562 leukemia
[23] = system: DU-145 prostate
[24] = system: MOLT-4 leukemia
[25] = system: PC-3 prostate
[26] = system: MDA-MB-231 breast
[27] = system: UACC-62 melanoma
[28] = system: SNB-75 CNS
[29] = system: SR leukemia
[30] = system: KM12 colon
[31] = system: SK-MEL-28 melanoma
[32] = system: UACC-257 melanoma
[33] = system: T-47D breast
[34] = system: IGROV1 ovarian
[35] = system: TK-10 renal
[36] = system: RPMI-8226 leukemia
[37] = system: 786-0 renal
[38] = system: SK-OV-3 ovarian
[39] = system: HCT-116 colon
[40] = system: COLO 205 colon
[41] = system: NCI-H23 lung
[42] = system: SNB-19 CNS
[43] = system: MCF7 breast
[44] = system: RXF 393 renal
[45] = system: BT-549 breast
[46] = system: CAKI-1 renal
[47] = system: MALME-3M melanoma
[48] = system: CCRF-CEM leukemia
[49] = system: SK-MEL-5 melanoma
[50] = system: HCC-2998 colon
[51] = system: ACHN renal
[52] = system: SW-620 colon
[53] = system: SK-MEL-2 melanoma

## Cc1nc2ccc(Nc3nc(NCCN4CCOCC4)nc(Nc4ccc(F)cc4)n3)cc2n1Cc1ccccc1
[1]
  GI50: 3.59 µM
  TGI: 13.2 µM
[2]
  GI50: 4.24 µM
  TGI: 20.3 µM
[3]
  GI50: 3.69 µM
  TGI: > 100 µM
[4]
  GI50: 1.82 µM
  TGI: 4.72 µM
[5]
  GI50: 1.49 µM
  TGI: 2.93 µM
[6]
  GI50: 5.57 µM
  TGI: > 100 µM
[7]
  GI50: 2.92 µM
  TGI: 9.48 µM
[8]
  GI50: 3.28 µM
  TGI: > 100 µM
[9]
  GI50: 2.16 µM
  TGI: 5.68 µM
[10]
  GI50: 1.86 µM
  TGI: 3.66 µM
[11]
  GI50: 4.02 µM
  TGI: 27.9 µM
[12]
  GI50: 2.71 µM
  TGI: 13.6 µM
[13]
  GI50: 1.63 µM
  TGI: 3.23 µM
[14]
  GI50: 1.87 µM
  TGI: 6.66 µM
[15]
  GI50: 1.59 µM
  TGI: 6.48 µM
[16]
  GI50: 3.79 µM
  TGI: 40.1 µM
[17]
  GI50: 5.82 µM
  TGI: 33.9 µM
[18]
  GI50: 1.78 µM
  TGI: 8.2 µM
[19]
  GI50: 1.35 µM
  TGI: 5.13 µM
[20]
  GI50: 1.88 µM
  TGI: 6.23 µM
[21]
  GI50: 2.23 µM
  TGI: 6.25 µM
[22]
  GI50: 1.79 µM
  TGI: 7.42 µM
[23]
  GI50: 5.56 µM
  TGI: 71.6 µM
[24]
  GI50: 2.7 µM
  TGI: 10.9 µM
[25]
  GI50: 3.26 µM
  TGI: 16.2 µM
[26]
  GI50: 1.71 µM
  TGI: 3.71 µM
[27]
  GI50: 2.27 µM
  TGI: 6.18 µM
[28]
  GI50: 1.59 µM
  TGI: 4.82 µM
[29]
  GI50: 1.46 µM
  TGI: 5.23 µM
[30]
  GI50: 3.82 µM
  TGI: 19.9 µM
[31]
  GI50: 1.56 µM
  TGI: 2.94 µM
[32]
  GI50: 1.74 µM
  TGI: 3.27 µM
[33]
  GI50: 2.66 µM
  TGI: 18.8 µM
[34]
  GI50: 5.59 µM
  TGI: 46 µM
[35]
  GI50: 7.26 µM
  TGI: 32.2 µM
[36]
  GI50: 1.74 µM
  TGI: 4.62 µM
[37]
  GI50: 1.41 µM
  TGI: 3.04 µM
[38]
  GI50: 4.48 µM
  TGI: 17.3 µM
[39]
  GI50: 2.02 µM
  TGI: 5.43 µM
[40]
  GI50: 1.62 µM
  TGI: 3.13 µM
[41]
  GI50: 3.67 µM
  TGI: 24.8 µM
[42]
  GI50: 3.07 µM
  TGI: 15.2 µM
[43]
  GI50: 2.46 µM
  TGI: 11.7 µM
[44]
  GI50: 1.59 µM
  TGI: 4.07 µM
[45]
  GI50: 2.13 µM
  TGI: 9.33 µM
[46]
  GI50: 2.55 µM
  TGI: 65 µM
[47]
  GI50: 2.04 µM
  TGI: 3.6 µM
[48]
  GI50: 2.27 µM
  TGI: 8.04 µM
[49]
  GI50: 1.63 µM
  TGI: 2.98 µM
[50]
  GI50: 2.74 µM
  TGI: 6.23 µM
[51]
  GI50: 2.78 µM
  TGI: 17.5 µM
[52]
  GI50: 3.24 µM
  TGI: 10.7 µM
[53]
  GI50: 2.16 µM
  TGI: 4.61 µM
